Assay results published in patent US9932314B2, “Pyrazole compounds and their use as T-type calcium channel blockers” (IDORSIA PHARMACEUTICALS LTD, priority 2015, dated 2018).

biological target: T1, voltage-dependent T-type calcium channel subunit alpha-1G (Cav3.2) (Homo sapiens, UniProt O95180); experiment: FLIPR calcium flux assay, HEK293 cells recombinantly expressing Cav3.2; type: cell-based; details: Cav3.2-channel, Fluo-4-AM, 3 min incubation, stimulation with 10 mM CaCl2
T1 construct: expressed in transfected cells; host or cells: HEK293
T1 sequence (O95180 whole entry): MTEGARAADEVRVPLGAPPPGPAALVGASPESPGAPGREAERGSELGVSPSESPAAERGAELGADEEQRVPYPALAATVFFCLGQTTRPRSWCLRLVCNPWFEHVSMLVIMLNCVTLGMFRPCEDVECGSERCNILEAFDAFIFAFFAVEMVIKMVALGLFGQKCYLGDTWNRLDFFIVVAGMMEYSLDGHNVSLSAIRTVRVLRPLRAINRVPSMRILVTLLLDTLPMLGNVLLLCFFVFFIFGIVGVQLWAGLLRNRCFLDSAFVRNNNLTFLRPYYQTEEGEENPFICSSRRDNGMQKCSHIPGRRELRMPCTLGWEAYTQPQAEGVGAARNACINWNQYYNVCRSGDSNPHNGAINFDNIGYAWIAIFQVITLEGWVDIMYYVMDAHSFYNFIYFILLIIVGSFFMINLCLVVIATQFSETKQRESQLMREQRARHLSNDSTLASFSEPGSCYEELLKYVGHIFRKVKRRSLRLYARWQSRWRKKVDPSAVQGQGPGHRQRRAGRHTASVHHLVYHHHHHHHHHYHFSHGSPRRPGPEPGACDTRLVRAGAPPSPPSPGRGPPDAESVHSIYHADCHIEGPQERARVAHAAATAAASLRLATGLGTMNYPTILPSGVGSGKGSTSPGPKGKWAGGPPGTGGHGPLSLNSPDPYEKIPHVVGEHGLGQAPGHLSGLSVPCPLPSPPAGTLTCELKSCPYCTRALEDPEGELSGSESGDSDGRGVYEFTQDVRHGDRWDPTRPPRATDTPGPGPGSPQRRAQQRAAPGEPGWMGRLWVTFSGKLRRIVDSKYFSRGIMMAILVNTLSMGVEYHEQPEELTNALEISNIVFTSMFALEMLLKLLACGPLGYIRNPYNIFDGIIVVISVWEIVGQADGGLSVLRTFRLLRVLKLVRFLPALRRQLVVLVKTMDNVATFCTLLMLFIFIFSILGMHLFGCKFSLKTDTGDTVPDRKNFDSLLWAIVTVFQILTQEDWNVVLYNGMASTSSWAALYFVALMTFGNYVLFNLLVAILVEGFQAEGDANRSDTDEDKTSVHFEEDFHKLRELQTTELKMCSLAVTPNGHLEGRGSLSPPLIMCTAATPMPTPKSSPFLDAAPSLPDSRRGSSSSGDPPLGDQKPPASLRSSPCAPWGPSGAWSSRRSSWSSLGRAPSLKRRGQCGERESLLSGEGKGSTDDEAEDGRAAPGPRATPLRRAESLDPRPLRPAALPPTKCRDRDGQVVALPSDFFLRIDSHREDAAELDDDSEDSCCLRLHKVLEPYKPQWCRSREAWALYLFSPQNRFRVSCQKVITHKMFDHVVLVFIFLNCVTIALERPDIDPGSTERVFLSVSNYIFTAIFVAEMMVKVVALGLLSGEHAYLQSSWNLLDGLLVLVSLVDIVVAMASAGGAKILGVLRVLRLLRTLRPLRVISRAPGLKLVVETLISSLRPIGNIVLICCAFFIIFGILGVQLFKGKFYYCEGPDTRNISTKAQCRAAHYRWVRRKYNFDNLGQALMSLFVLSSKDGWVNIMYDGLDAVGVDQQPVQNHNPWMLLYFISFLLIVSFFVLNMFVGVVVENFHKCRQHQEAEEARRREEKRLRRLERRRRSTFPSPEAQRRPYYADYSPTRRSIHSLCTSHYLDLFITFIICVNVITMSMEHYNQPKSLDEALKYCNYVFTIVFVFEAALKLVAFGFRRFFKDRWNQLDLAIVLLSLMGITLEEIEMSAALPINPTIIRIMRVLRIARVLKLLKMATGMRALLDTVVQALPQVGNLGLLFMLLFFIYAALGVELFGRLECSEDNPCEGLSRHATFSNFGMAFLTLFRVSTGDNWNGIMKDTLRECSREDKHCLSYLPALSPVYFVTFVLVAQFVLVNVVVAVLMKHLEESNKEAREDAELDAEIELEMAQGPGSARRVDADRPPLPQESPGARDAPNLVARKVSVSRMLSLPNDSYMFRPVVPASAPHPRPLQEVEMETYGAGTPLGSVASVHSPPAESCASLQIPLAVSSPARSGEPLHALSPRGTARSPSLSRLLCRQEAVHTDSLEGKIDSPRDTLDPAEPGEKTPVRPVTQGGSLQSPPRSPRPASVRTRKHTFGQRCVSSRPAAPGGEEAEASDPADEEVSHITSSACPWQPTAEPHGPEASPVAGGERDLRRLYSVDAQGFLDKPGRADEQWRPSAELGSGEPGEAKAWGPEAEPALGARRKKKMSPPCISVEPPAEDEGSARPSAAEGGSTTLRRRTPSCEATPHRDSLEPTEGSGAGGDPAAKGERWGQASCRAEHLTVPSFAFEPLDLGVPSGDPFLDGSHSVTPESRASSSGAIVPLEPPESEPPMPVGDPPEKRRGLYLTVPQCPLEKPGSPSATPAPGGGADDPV
Procedure, shortened: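 HEK293 cells stably expressing human Cav3.2 were loaded with Fluo-4-AM. Compounds diluted in TEAC buffer (pH 7.2) were preincubated for 3 min, then Ca2+ entry was triggered by 10 mM final CaCl2. Inhibition curves were fitted sigmoidally to the area under the fluorescence trace.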

Row | SMILES | IC50 [nM]
1 | COc1ccc(Cn2ccc(NC(=O)Cc3ccc(N4CC(F)(F)C4)nc3)n2)cc1 [Example 146, 2-[6-(3,3-Difluoro-azetidin-1-yl)-pyridin-3-yl]-N-[1-(4-methoxy-benzyl)-1H-pyrazol-3-yl]-acetamide] | 136
2 | CC(C)Cc1ccc(CC(=O)Nc2ccn(Cc3ccc(F)cc3)n2)cc1 [Example 147, N-[1-(4-Fluoro-benzyl)-1H-pyrazol-3-yl]-2-(4-isobutyl-phenyl)-acetamide] | 13
3 | CC(C)c1ccc(CC(=O)Nc2ccn(Cc3ccc(C#N)c(F)n3)n2)cc1 [Example 148, N-[1-(5-Cyano-6-fluoro-pyridin-2-ylmethyl)-1H-pyrazol-3-yl]-2-(4-isopropyl-phenyl)-acetamide] | 7.6
4 | CN(C)c1ccc(CC(=O)Nc2ccn(Cc3ccc(F)cn3)n2)cc1 [Example 149, 2-(4-Dimethylamino-phenyl)-N-[1-(5-fluoro-pyridin-2-ylmethyl)-1H-pyrazol-3-yl]-acetamide] | 85
5 | CN(C)c1ccc(CC(=O)Nc2ccn(Cc3ccc(F)cn3)n2)cn1 [Example 150, 2-(6-Dimethylamino-pyridin-3-yl)-N-[1-(5-fluoro-pyridin-2-ylmethyl)-1H-pyrazol-3-yl]-acetamide] | 682
6 | CN(CC(F)F)c1ccc(CC(=O)Nc2ccn(Cc3ccc(C#N)cn3)n2)cn1 [Example 151, N-[1-(5-Cyano-pyridin-2-ylmethyl)-1H-pyrazol-3-yl]-2-{6-[(2,2-difluoro-ethyl)-methyl-amino]-pyridin-3-yl}-acetamide] | 649
7 | N#Cc1ccc(Cn2ccc(NC(=O)Cc3ccc(N4CC[C@H](F)C4)nc3)n2)nc1 [Example 152, N-[1-(5-Cyano-pyridin-2-ylmethyl)-1H-pyrazol-3-yl]-2-[6-((S)-3-fluoro-pyrrolidin-1-yl)-pyridin-3-yl]-acetamide] | 1160
8 | N#Cc1ccc(Cn2ccc(NC(=O)Cc3ccc(N4CC[C@H](F)C4)nc3)n2)cc1 [Example 154, N-[1-(4-Cyano-benzyl)-1H-pyrazol-3-yl]-2-[6-((S)-3-fluoro-pyrrolidin-1-yl)-pyridin-3-yl]-acetamide] | 78
9 | O=C(Cc1ccc(N2CC[C@H](F)C2)nc1)Nc1ccn(Cc2ccc(F)cc2)n1 [Example 155, N-[1-(4-Fluoro-benzyl)-1H-pyrazol-3-yl]-2-[6((S)-3-fluoro-pyrrolidin-1-yl)-pyridin-3-yl]-acetamide] | 70
10 | COc1ccc(Cn2ccc(NC(=O)Cc3ccc(N4CC[C@H](F)C4)nc3)n2)cc1 [Example 156, 2-[6-((S)-3-Fluoro-pyrrolidin-1-yl)-pyridin-3-yl]-N-[1-(4-methoxy-benzyl)-1H-pyrazol-3-yl]-acetamide] | 179
11 | CC(C)c1ccc(CC(=O)Nc2ccn(Cc3cc(Cl)c(C#N)cn3)n2)cc1 [Example 157, N-[1-(4-Chloro-5-cyano-pyridin-2-ylmethyl)-1H-pyrazol-3-yl]-2-(4-isopropyl-phenyl)-acetamide] | 34
12 | O=C(Cc1ccc(CC2CC2)cc1)Nc1ccn(Cc2ccc(F)cc2)n1 [Example 158, 2-(4-Cyclopropylmethyl-phenyl)-N-[1-(4-fluoro-benzyl)-1H-pyrazol-3-yl]-acetamide] | 11
13 | N#Cc1ccc(Cn2ccc(NC(=O)Cc3ccc(N4CC(F)C4)nc3)n2)nc1 [Example 159, N-[1-(5-Cyano-pyridin-2-ylmethyl)-1H-pyrazol-3-yl]-2-[6-(3-fluoro-azetidin-1-yl)-pyridin-3-yl]-acetamide] | 1180
14 | O=C(Cc1ccc(N2CC(F)C2)nc1)Nc1ccn(Cc2ccc(F)c(F)c2)n1 [Example 160, N-[1-(3,4-Difluoro-benzyl)-1H-pyrazol-3-yl]-2-[6-(3-fluoro-azetidin-1-yl)-pyridin-3-yl]-acetamide] | 29
15 | N#Cc1ccc(Cn2ccc(NC(=O)Cc3ccc(N4CC(F)C4)nc3)n2)cc1 [Example 161, N-[1-(4-Cyano-benzyl)-1H-pyrazol-3-yl]-2-[6-(3-fluoro-azetidin-1-yl)-pyridin-3-yl]-acetamide] | 258
16 | O=C(Cc1ccc(N2CC(F)C2)nc1)Nc1ccn(Cc2ccc(F)cc2)n1 [Example 162, 2-[6-(3-Fluoro-azetidin-1-yl)-pyridin-3-yl]-N-[1-(4-fluoro-benzyl)-1H-pyrazol-3-yl]-acetamide] | 64
17 | COc1ccc(Cn2ccc(NC(=O)Cc3ccc(N4CC(F)C4)nc3)n2)cc1 [Example 163, 2-[6-(3-Fluoro-azetidin-1-yl)-pyridin-3-yl]-N-[1-(4-methoxy-benzyl)-1H-pyrazol-3-yl]-acetamide] | 345
18 | CN(c1ccc(CC(=O)Nc2ccn(Cc3ccc(C#N)cn3)n2)cn1)C1CC1 [Example 164, N-[1-(5-Cyano-pyridin-2-ylmethyl)-1H-pyrazol-3-yl]-2-[6-(cyclopropyl(methyl)amino)-pyridin-3-yl]-acetamide] | 568
19 | CN(c1ccc(CC(=O)Nc2ccn(Cc3ccc(F)c(F)c3)n2)cn1)C1CC1 [Example 165, 2-[6-(Cyclopropyl(methyl)amino)-pyridin-3-yl]-N-[1-(3,4-difluoro-benzyl)-1H-pyrazol-3-yl]-acetamide] | 13
20 | CN(c1ccc(CC(=O)Nc2ccn(Cc3ccc(C#N)cc3)n2)cn1)C1CC1 [Example 166, N-[1-(4-Cyano-benzyl)-1H-pyrazol-3-yl]-2-[6-(cyclopropyl(methyl)amino)-pyridin-3-yl]-acetamide] | 86
21 | CN(c1ccc(CC(=O)Nc2ccn(Cc3ccc(F)cc3)n2)cn1)C1CC1 [Example 167, 2-[6-(Cyclopropyl(methyl)amino)-pyridin-3-yl]-N-[1-(4-fluoro-benzyl)-1H-pyrazol-3-yl]-acetamide] | 21
22 | COc1ccc(Cn2ccc(NC(=O)Cc3ccc(N(C)C4CC4)nc3)n2)cc1 [Example 168, 2-[6-(Cyclopropyl(methyl)amino)-pyridin-3-yl]-N-[1-(4-methoxy-benzyl)-1H-pyrazol-3-yl]-acetamide] | 113
23 | Cc1cc(Cn2ccc(NC(=O)Cc3ccc(C(C)C)cc3)n2)ncc1C#N [Example 169, N-[1-(5-Cyano-4-methyl-pyridin-2-ylmethyl)-1H-pyrazol-3-yl]-2-(4-isopropyl-phenyl)-acetamide] | 104
24 | CC(C)c1ccc(CC(=O)Nc2ccn(Cc3cc(C4CC4)c(C#N)cn3)n2)cc1 [Example 170, N-[1-(5-Cyano-4-cyclopropyl-pyridin-2-ylmethyl)-1H-pyrazol-3-yl]-2-(4-isopropyl-phenyl)-acetamide] | 191
25 | CCN(C)c1ccc(CC(=O)Nc2ccn(Cc3ccc(C#N)cn3)n2)cn1 [Example 171, N-[1-(5-Cyano-pyridin-2-ylmethyl)-1H-pyrazol-3-yl]-2-[6-(ethyl-methyl-amino)-pyridin-3-yl]-acetamide] | 980

Next, values leading:

Row | IC50 [nM] | SMILES
26 | 15 | CCN(C)c1ccc(CC(=O)Nc2ccn(Cc3ccc(F)c(F)c3)n2)cn1 [Example 172, N-[1-(3,4-Difluoro-benzyl)-1H-pyrazol-3-yl]-2-[6-(ethyl-methyl-amino)-pyridin-3-yl]-acetamide]
27 | 188 | CCN(C)c1ccc(CC(=O)Nc2ccn(Cc3ccc(C#N)cc3)n2)cn1 [Example 173, N-[1-(4-Cyano-benzyl)-1H-pyrazol-3-yl]-2-[6-(ethyl-methyl-amino)-pyridin-3-yl]-acetamide]
28 | 319 | CCN(C)c1ccc(CC(=O)Nc2ccn(Cc3ccc(OC)cc3)n2)cn1 [Example 174, 2-[6-(Ethyl-methyl-amino)-pyridin-3-yl]-N-[1-(4-methoxy-benzyl)-1H-pyrazol-3-yl]-acetamide]
29 | 17 | O=C(Cc1ccc(N2CCCC2)nc1)Nc1ccn(Cc2ccc(F)c(F)c2)n1 [Example 175, N-[1-(3,4-Difluoro-benzyl)-1H-pyrazol-3-yl]-2-(6-pyrrolidin-1-yl-pyridin-3-yl)-acetamide]
30 | 67 | N#Cc1ccc(Cn2ccc(NC(=O)Cc3ccc(N4CCCC4)nc3)n2)cc1 [Example 176, N-[1-(4-Cyano-benzyl)-1H-pyrazol-3-yl]-2-(6-pyrrolidin-1-yl-pyridin-3-yl)-acetamide]
31 | 18 | O=C(Cc1ccc(N2CCCC2)nc1)Nc1ccn(Cc2ccc(F)cc2)n1 [Example 177, N-[1-(4-Fluoro-benzyl)-1H-pyrazol-3-yl]-2-(6-pyrrolidin-1-yl-pyridin-3-yl)-acetamide]
32 | 99 | COc1ccc(Cn2ccc(NC(=O)Cc3ccc(N4CCCC4)nc3)n2)cc1 [Example 178, N-[1-(4-Methoxy-benzyl)-1H-pyrazol-3-yl]-2-(6-pyrrolidin-1-yl-pyridin-3-yl)-acetamide]
33 | 2500 | COCCN(C)c1ccc(CC(=O)Nc2ccn(Cc3ccc(C#N)cn3)n2)cn1 [Example 179, N-[1-(5-Cyano-pyridin-2-ylmethyl)-1H-pyrazol-3-yl]-2-{6-[(2-methoxy-ethyl)-methyl-amino]-pyridin-3-yl}-acetamide]
34 | 33 | COCCN(C)c1ccc(CC(=O)Nc2ccn(Cc3ccc(F)c(F)c3)n2)cn1 [Example 180, N-[1-(3,4-Difluoro-benzyl)-1H-pyrazol-3-yl]-2-{6-[(2-methoxy-ethyl)-methyl-amino]-pyridin-3-yl}-acetamide]
35 | 272 | COCCN(C)c1ccc(CC(=O)Nc2ccn(Cc3ccc(C#N)cc3)n2)cn1 [Example 181, N-[1-(4-Cyano-benzyl)-1H-pyrazol-3-yl]-2-{6-[(2-methoxy-ethyl)-methyl-amino]-pyridin-3-yl}-acetamide]
36 | 65 | COCCN(C)c1ccc(CC(=O)Nc2ccn(Cc3ccc(F)cc3)n2)cn1 [Example 182, N-[1-(4-Fluoro-benzyl)-1H-pyrazol-3-yl]-2-{6-[(2-methoxy-ethyl)-methyl-amino]-pyridin-3-yl}-acetamide]
37 | 530 | COCCN(C)c1ccc(CC(=O)Nc2ccn(Cc3ccc(OC)cc3)n2)cn1 [Example 183, N-[1-(4-Methoxy-benzyl)-1H-pyrazol-3-yl]-2-{6-[(2-methoxy-ethyl)-methyl-amino]-pyridin-3-yl}-acetamide]
